Each block holds one molecule with its values, some of them ahead of it.
Tests used:
[1] = molecular target: T1, sulfotransferase SULT1A1 (Homo sapiens, UniProt P50225); assay: Inhibition of SULT1A1 sulfonation of para-nitrophenol (PNP); assay type: biochemical; conditions: inhibition of SULT1A1 sulfonation of 4-nitrophenol; 37° C., 15 min, [35S]-PAPS
T1 construct: purchased Sigma; host or cells: sf-9 insect cells (baculovirus)
From the text: (§1) β-Naphthol (BN, a reference control), para-nitrophenol (PNP), estradiol (E2), dehydroepiandrosterone (DHEA), dopamine, dithiothreitol (DTT), and MgCl2 were purchased from Sigma (St. Louis, Mo.). Cytosolic extract of sf-9 insect cells infected with a baculovirus containing SULT cDNAs (SULT1A1, SULT1A3, SULT1E1, SULT2A1) were also purchased from Sigma. [^35S]-3′-Phosphoadenosine 5′-Phosphosulfate (PAPS)(1-3 Ci/mmol) was purchased from Perkin Elmer (Waltham, Mass.). Aluminum-backed silica TLC plates were purchased from Whatman.
Substrate sulfonation assays were performed using cytosolic sulfotransferases SULT1A1, SULT1A3, SULT1E1, and SULT2A1. Enzyme kinetic parameters were determined by using substrate concentration curves. The sulfonation reaction was carried out using [^35S]-PAPS as the sulfate donor, and the reaction mixture was analyzed using a thin-layer chromatography (TLC) method described in literature (Falany et al., 2006). Reaction mixtures consisted of 10 μL of substrates, originally dissolved in dimethyl sulfoxide and diluted to 1% with Tris-HCl buffer; 50 mM Tris-HCl buffer, pH 7.4; 0.1% bovine serum albumin; 7.5 mM DTT; and 1 μM [^35S]-PAPS in the final volume of 50 μL. The final concentration of dimethyl sulfoxide was kept at 0.2%. Reactions with SULT1E1 and SULT2A1 were supplemented with 7 mM MgCl2; reactions with SULT1A3 included 1 mM pargyline. Control reactions were performed under identical conditions without addition of substrates. Sulfonation reactions were carried out at 37° C. for 15 min. Enzymatic activity was terminated by precipitation with 50 μL of ice cold methanol and cooling the mixture at −20° C. Subsequently, 20 μL aliquots of the supernatant were spotted on silica gel TLC plates and were developed in t-butanol:acetic acid:water (8:1:1 by volume). Sulfonated products (Rf=0.66±0.05) were well separated from unreacted [^35S]PAPS, which was retained at the origin. TLC plates were exposed on digital autoradiography plates for 2 hrs and read in with a Fuji BAS-5000 digital autoradiography plate reader. The results were quantitated with the software provided with the scanner. Spots were localized and the silica gel was scraped into liquid scintillation vials. Vials were counted using MP-Ecolite+ LS fluid and a Packard Tricarb 2300TR LSC for 5 min per vial. Reactions were monitored for linearity with time and enzyme concentration to ensure the enzyme was the limiting factor.
In vitro inhibition reactions were performed using the standard SULT1A1 substrate, para-nitrophenol (PNP), against various 4′-substituted 2-phenyl-6-hydroxybenzothiazoles shown in Table 3. PNP was dissolved in 50 mM Tris-HCl buffer (pH 7.4), and inhibitors were dissolved in dimethyl sulfoxide and diluted to 1% dimethyl sulfoxide concentration with the Tris-HCl buffer. […]

[2] = molecular target: T2, sulfotransferase SULT1A1 (Rattus norvegicus, UniProt P17988); assay: In vivo microPET imaging of sulfotransferase activity and inhibition in rat; parameters: species or system Sprague-Dawley rat
T2 construct: from tissue; host or cells: living Sprague-Dawley rat (brain, chest, abdomen)
Description: (§2) A bolus of a radiolabeled tracer is administered intravenously to a non-human primate, rodent, or other non-human mammal, and the distribution of tracer transport activity is followed by radiographic means, e.g., PET, microPET and/or SPECT. For PET, an intravenous dose of the tracer contains ˜0.1-3 mCi/kg (body weight) dissolved in <1 ml of 10% ethanol in saline. The identity of each organ and tissue taking up the tracer can be confirmed by CT scans. Scans can be conducted both with and without administering one or more pharmacological agents, e.g., 2,6-dichloro-4-nitrophenol, quercitin, curcumin, etc.
FIG. 7 depicts in vivo microPET imaging of sulfotransferase activity and inhibition in a male, Sprague-Dawley rat suffering from renal hypertension, chronic progressive nephropathy, and lung inflammation, using 4-[^18F]-fluoro-3-nitrophenol as a substrate and 2,6-dichloro-4-nitrophenol as an inhibitor. 4-[^18F]-fluoro-3-nitrophenol was administered as a bolus injection (0.5 to 2.0 mCi) and the rat brain was scanned dynamically for 60 min. Subsequently, the chest was scanned for 5 min., followed by a 5 min. scan of the abdomen.

[3] = Plasma metabolite analysis of tracer in rats; assay type: in vivo, Sprague-Dawley rats; conditions: rat plasma, after 10-15 min
Description: (§3) FIG. 5 depicts in vivo microPET imaging of sulfotransferase SULT1E1 expression in healthy and inflamed lungs in 8-9 month old male Sprague-Dawley rats, using the substrate 2-(4′-([^11C]-methylamino)phenyl)-6-hydroxybenzothiazole. On the left are shown the chest and upper abdomen of a healthy control rat; on the right is a rat suffering from renal hypertension, chronic progressive nephropathy, and lung inflammation. Both animals were injected with 2.0-2.5 mCi of activity. The images shown were acquired over the period of 15-25 min after injection. […] Warmer colors represent higher levels of tracer uptake.
Metabolite analysis was performed using reverse phase C-18 TLC plates and a mixture of methanol, acetic acid and water (80:5:15, respectively). Plasma was de-proteinated with addition of an equal volume of methanol. The supernatant was spotted on the plates and the plates developed in the mobile phase. The analysis of the plates was performed as described above in the description of the sulfonation assays (Ex. 1-25). Metabolites were identified as follows: […] samples of plasma were mixed with 500-1000 U of either […] (to remove the sulfonated metabolite) or glucoronidase (to remove glucoronidated metabolite). […] The supernatants were analyzed as described above and the results compared with the results for un-treated plasma.

[4] = molecular target: T3, sulfotransferase SULT1E1 (Homo sapiens, UniProt P49888); assay: In vivo PET imaging of SULT1E1 expression in humans; conditions: PET 20-45 minutes after injection
T3 construct: from tissue; host or cells: living human subjects (lungs, liver, kidneys)
T3 sequence (P49888 1-294): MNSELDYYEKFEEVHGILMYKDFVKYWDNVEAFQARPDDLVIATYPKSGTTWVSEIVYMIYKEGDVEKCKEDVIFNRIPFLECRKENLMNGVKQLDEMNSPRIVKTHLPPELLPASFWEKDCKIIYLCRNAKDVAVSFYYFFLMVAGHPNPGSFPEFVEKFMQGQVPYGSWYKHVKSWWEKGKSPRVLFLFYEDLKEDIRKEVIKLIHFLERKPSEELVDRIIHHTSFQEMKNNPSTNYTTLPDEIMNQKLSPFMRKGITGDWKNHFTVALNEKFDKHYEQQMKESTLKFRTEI
Description: A bolus of a radiolabeled tracer is administered to a human subject by intravenous injection, and its uptake into a tumor (in the case of cancer), one or more organs of interest, and/or other tissues of the body is followed radiographically. For a 50-70 kg person, 10 mCi of an appropriate tracer from Table 1 or 2 (e.g.) is dissolved in <10 ml 10% ethanol in saline and is injected intravenously, and the distribution of the tracer is followed dynamically with PET for up to 2 hours (multiple whole-body scans at different time intervals or dynamic PET scan of a specific organ). SULT activity in organs and tissues is determined using tracer kinetic modeling from the PET determined tracer uptake data. The anatomical location of tracer uptake in both normal subjects and cancer patients can be determined using CT scans.
FIG. 6 depicts in vivo PET imaging of sulfotransferase SULT1E1 expression in two adult male humans. […] Increased SULT1E1 expression associated with lung inflammation caused by smoking is clearly visible in the lungs of the smoker. Both subjects were scanned with PET 20-45 minutes after being injected with the tracer 2-(4′-([^11C]-methylamino)phenyl)-6-hydroxybenzothiazole. The smoker received a dose of 10.5 mCi, and the non-smoker received 10.0 mCi. The images were normalized by dividing the signal values with dose injected per kg of body weight.

[5] = rat brain; Mathis et al., 2004; cited from earlier work
[6] = molecular target: T4, SULT1E1 (Homo sapiens, UniProt P49888); assay: Substrate sulfonation assay, SULT1E1; assay type: biochemical; conditions: in vitro sulfonation
T4 construct: purchased Sigma; host or cells: sf-9 insect cells (baculovirus)
T4 sequence (P49888 1-294): T3 sequence (P49888 1-294)
From the text: as §1
(§4) Substrate sulfonation assays were performed using cytosolic sulfotransferases SULT1A1, SULT1A3, SULT1E1, and SULT2A1. Enzyme kinetic parameters were determined by using substrate concentration curves. The sulfonation reaction was carried out using [^35S]-PAPS as the sulfate donor, and the reaction mixture was analyzed using a thin-layer chromatography (TLC) method described in literature (Falany et al., 2006). […] TLC plates were exposed on digital autoradiography plates for 2 hrs and read in with a Fuji BAS-5000 digital autoradiography plate reader. The results were quantitated with the software provided with the scanner. […] Vials were counted using MP-Ecolite+ LS fluid and a Packard Tricarb 2300TR LSC for 5 min per vial. Reactions were monitored for linearity with time and enzyme concentration to ensure the enzyme was the limiting factor. […]

[7] = tested on: sulfotransferase SULT1E1; assay: In vivo microPET imaging of SULT1E1 expression in rats; parameters: species or system Sprague-Dawley rats; conditions: images 15-25 min after injection
Description: as §2, §3

[8] = molecular target: T5, SULT1A1 (Homo sapiens, UniProt P50225); assay: Substrate sulfonation assay, SULT1A1; assay type: biochemical; conditions: in vitro sulfonation
T5 construct: purchased Sigma; host or cells: sf-9 insect cells (baculovirus)
From the text: as §1, §4

[9] = molecular target: brain SULT1A enzymes; conditions: Vietri et al., 2002b, read-out: IC50 for blocking sulfonation of R(−)-apomorphine; cited from earlier work

T1 sequence (P50225 whole entry): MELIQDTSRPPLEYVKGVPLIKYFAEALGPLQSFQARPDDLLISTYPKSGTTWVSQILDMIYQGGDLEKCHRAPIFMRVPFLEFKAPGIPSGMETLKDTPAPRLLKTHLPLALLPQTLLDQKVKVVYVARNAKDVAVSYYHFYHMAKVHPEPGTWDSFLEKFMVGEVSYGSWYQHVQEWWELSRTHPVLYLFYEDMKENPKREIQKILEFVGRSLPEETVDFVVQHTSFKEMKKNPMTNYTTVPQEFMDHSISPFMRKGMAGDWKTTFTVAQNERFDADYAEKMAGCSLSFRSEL
T2 sequence (P17988 whole entry): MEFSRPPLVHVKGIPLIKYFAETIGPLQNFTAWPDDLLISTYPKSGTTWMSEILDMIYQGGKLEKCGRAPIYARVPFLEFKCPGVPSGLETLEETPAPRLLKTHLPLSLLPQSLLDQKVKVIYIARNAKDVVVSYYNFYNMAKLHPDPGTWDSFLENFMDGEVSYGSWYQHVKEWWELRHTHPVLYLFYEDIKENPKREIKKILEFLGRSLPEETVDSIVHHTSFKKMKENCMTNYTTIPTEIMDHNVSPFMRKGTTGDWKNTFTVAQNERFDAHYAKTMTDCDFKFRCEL
T5 sequence (P50225 whole entry): as the sequence (P50225 whole entry) above

Structure (SMILES): COc1ccc(-c2nc3ccc(O)cc3s2)cc1 [Compound 17]
Ki [1]: 24 ± 2 nM

Structure (SMILES): O=[N+]([O-])c1cc(Cl)c(O)c(Cl)c1 [2,6-dichloro-4-nitrophenol]
effect on SULT1A1 activity in vivo (microPET) ([2]; 5 mg/Kg at the time of the 4-[18F]-fluoro-3-nitrophenol bolus injection): inhibitory effect on SULT1A1 activity

Structure (SMILES): O=[N+]([O-])c1cc(O)ccc1[18F] [4-[^18F]-fluoro-3-nitrophenol, 4-[^18F]Fluoro-3-nitrophenol]
substrate for SULT1A1 in vivo (microPET) ([2]; rat, bolus injection 0.5 to 2.0 mCi): is a substrate for the sulfotransferase SULT1A1

Structure (SMILES): O=c1c(O)c(-c2ccc(O)c(O)c2)oc2cc(O)cc(O)c12 [quercitin]
IC50 [9]: 16 ± 2.3 nM

The next lines start with results.

Ki [1]: 100 ± 20 nM
Structure (SMILES): CC(=O)Nc1ccc(-c2nc3ccc(O)cc3s2)cc1 [Compound 18]

Ki [1]: 140 ± 10 nM
Structure (SMILES): Oc1ccc2nc(-c3ccc(F)cc3)sc2c1 [Compound 19]

fraction of tracer in sulfated form in plasma [3]: ~90%
tracer activity in liver and kidneys [4]: high level of activity
tracer uptake in lungs ([7]; healthy control rat): indistinguishable from the background
tracer uptake in lungs ([7]; rat with lung inflammation): increased uptake
tracer activity in liver ([7]; rats): high level of activity
substrate for SULT1A1 [8]: not a substrate for SULT1A1
Structure (SMILES): [11CH3]Nc1ccc(-c2nc3ccc(O)cc3s2)cc1 [2-(4′-([^11C]-methylamino)phenyl)-6-hydroxybenzothiazole]
tracer uptake in lungs ([4]; versus background (muscles)): increased level of uptake compared with the background
sulfonation in brain in vivo [5]: sulfonated in the rat brain in vivo
substrate for SULT1E1 [6]: good marker of sulfotransferases, most specifically SULT1E1

Ki [1]: 5.1 ± 0.3 nM
Structure (SMILES): CNc1ccc(-c2nc3ccc(O)cc3s2)cc1 [Compound 14]
